# Test results as given in ChEMBL document CHEMBL3044744, “Antifeedant effects of marine halogenated monoterpenes” (J Agric Food Chem, 2002).
# Activity calls are given as the source filed them. The calls are words filed in the database; no cut-off is given here.
# Columns and labels:
# [1] = system: Leptinotarsa decemlineata; assay: Antifeedant activity against adult of Leptinotarsa decemlineata in […] by choice test; format: functional, organism-based
# Myzus persicae [2] = assay: Antifeedant activity against adult of Myzus persicae (green peach aphid) in Hordeum vulgare by choice test; format: functional, organism-based
# Hordeum vulgare = assay: Phytotoxicity against Hordeum vulgare (barley) assessed as photosynthetic efficiency in leaf; format: organism-based; conditions: in vivo
# Rhopalosiphum padi [3] = assay: Antifeedant activity against adult of Rhopalosiphum padi in Hordeum vulgare by choice test; format: functional, organism-based
# Spodoptera littoralis [4] = assay: Antifeedant activity against L6 larvae of Spodoptera littoralis in Solanum tuberosum by choice test; format: functional, organism-based
# Rhopalosiphum padi [5] = assay: Antifeedant activity against adult of Rhopalosiphum padi in barley leaf assessed as ingestion time at 2 ug/cm2 after 2 hr by electronic recording; format: functional
# Rhopalosiphum padi [6] = assay: Antifeedant activity against adult of Rhopalosiphum padi in barley leaf assessed as salivation time at 1 ug/cm2 after 2 hr by electronic recording; format: functional
# Rhopalosiphum padi [7] = assay: Antifeedant activity against adult of Rhopalosiphum padi in barley leaf assessed as ingestion time at 10 ug/cm2 after 2 hr by electronic recording; format: functional
# Rhopalosiphum padi [8] = assay: Antifeedant activity against adult of Rhopalosiphum padi in barley leaf assessed as noningestion time at 10 ug/cm2 after 2 hr by electronic recording; format: functional
# Rhopalosiphum padi [9] = assay: Antifeedant activity against adult of Rhopalosiphum padi in barley leaf assessed as noningestion time at 2 ug/cm2 after 2 hr by electronic recording; format: functional
# Rhopalosiphum padi [10] = assay: Antifeedant activity against adult of Rhopalosiphum padi in barley leaf assessed as noningestion time at 1 ug/cm2 after 2 hr by electronic recording; format: functional
# Rhopalosiphum padi [11] = assay: Antifeedant activity against adult of Rhopalosiphum padi in barley leaf assessed as salivation time at 2 ug/cm2 after 2 hr by electronic recording; format: functional
# Rhopalosiphum padi [12] = assay: Antifeedant activity against adult of Rhopalosiphum padi in barley leaf assessed as ingestion time at 1 ug/cm2 after 2 hr by electronic recording; format: functional
# Rhopalosiphum padi [13] = assay: Antifeedant activity against adult of Rhopalosiphum padi in barley leaf assessed as salivation time at 10 ug/cm2 after 2 hr by electronic recording; format: functional
# Myzus persicae [14] = assay: Antifeedant activity against adult of Myzus persicae (green peach aphid) in Hordeum vulgare assessed as total settling at 50 ug/cm2 by choice test; format: functional
# [15] = Cytotoxicity against Spodoptera frugiperda (fall armyworm) Sf9 cells after 48 hr by MTT assay; format: cell-based; conditions: read-out: ED50
# Rhopalosiphum padi [16] = assay: Antifeedant activity against adult of Rhopalosiphum padi in Hordeum vulgare assessed as total settling at 50 ug/cm2 by choice test; format: functional
# Rhopalosiphum padi [17] = assay: Antifeedant activity against adult of Rhopalosiphum padi in Hordeum vulgare assessed as total settling at 10 ug/cm2 by choice test; format: functional
# [18] = Cytotoxicity against Cricetulus griseus CHO (Chinese hamster ovary) cells after 48 hr by MTT assay; format: cell-based; conditions: read-out: ED50
# Myzus persicae [19] = assay: Antifeedant activity against adult of Myzus persicae (green peach aphid) in Hordeum vulgare assessed as total settling at 10 ug/cm2 by choice test; format: functional
# Myzus persicae [20] = assay: Insecticidal activity against adult of Myzus persicae (green peach aphid) in Hordeum vulgare at 50 ug/cm2 by choice test; format: functional
# Rhopalosiphum padi [21] = assay: Insecticidal activity against adult of Rhopalosiphum padi in Hordeum vulgare assessed as mortality at 2 to 10 ug/cm2 by choice test; format: functional
# [22] = system: Leptinotarsa decemlineata; assay: Insecticidal activity against adult of Leptinotarsa decemlineata in […] at 2 ug/cm2 by choice test; format: functional, organism-based
# Spodoptera littoralis [23] = assay: Insecticidal activity against adult of Spodoptera littoralis in Solanum tuberosum at 50 ug/cm2 by choice test; format: functional, organism-based
# [24] = system: Leptinotarsa decemlineata; assay: Insecticidal activity against adult of Leptinotarsa decemlineata assessed as mortality at 10 ug/insect treated as hemolymph injection measured up to 3 days; format: functional
SMILES,EC50 [1] [nmol/cm2],EC50 (Myzus persicae [2]) [nmol/cm2],Activity (Hordeum vulgare),EC50 (Rhopalosiphum padi [3]) [nmol/cm2],Activity (Spodoptera littoralis [4]),other results
CC(=O)O[C@H]1C[C@H](C(C)(Br)CCl)O[C@@]1(C)/C(Cl)=C/Br (some centres undefined),17.1,50,Non-toxic,> 100,inactive,–
CC(=O)O[C@H]1C[C@@H](C(C)(Br)CCl)O[C@@]1(C)/C(Cl)=C/Br (some centres undefined),–,–,Non-toxic,> 100,inactive,–
CC1=CCC(C(C)(Cl)CCl)OC1C(Br)Br (centres undefined),8.3,> 100,Non-toxic,> 100,inactive,–
CC(=O)OC(C/C=C(/C)C(Cl)C(Br)Br)C(C)(Br)CCl (centres undefined),70,–,Non-toxic,70,inactive,–
CC1=C[C@](C)(/C=C/Cl)C=CC1=O,21.2,200,Non-toxic,200,inactive,–
C=C1C[C@](C)(/C=C/Cl)[C@H](Cl)C[C@H]1Cl,12.9,7.1,Non-toxic,44.2,inactive,–
C[C@]1(/C=C/Cl)C[C@@](C)(Cl)[C@H](Cl)C[C@H]1Cl,30.1,> 100,Non-toxic,63,inactive,–
C[C@@]1(Cl)C[C@@](C)(/C=C/Cl)[C@H](Cl)C[C@H]1Cl,13,1,Non-toxic,15.9,inactive,–
C[C@]1(/C=C/Cl)C[C@](Cl)(CBr)[C@@H](Br)C[C@H]1Cl,39.3,1,Non-toxic,1.2,inactive,Time (Rhopalosiphum padi [5]): 0 min; Time (Rhopalosiphum padi [6]): 12 min; Time (Rhopalosiphum padi [7]): 0 min; Time (Rhopalosiphum padi [8]): 60 min; Time (Rhopalosiphum padi [9]): 60 min; Time (Rhopalosiphum padi [10]): 48 min; Time (Rhopalosiphum padi [11]): 0 min; Time (Rhopalosiphum padi [12]): 0.1 min; Time (Rhopalosiphum padi [13]): 0 min
CC(C)=CCC/C(C)=C/CC/C(C)=C/CO [FARNESOL],107.3,67.1,–,7.9,–,–
CC(Br)(CCl)[C@H]1C[C@H](O)[C@](C)(/C(Cl)=C/Br)O1 (some centres undefined) [FUROPLOCAMIOID A],18.9,–,Non-toxic,> 100,inactive,–
CC(Br)(CCl)[C@@H]1C[C@H](O)[C@](C)(/C(Cl)=C/Br)O1 (some centres undefined) [FUROPLOCAMIOID C],19.1,3.7,Non-toxic,1.6,inactive,Activity (Myzus persicae [14]): <50%; CC50 at 48 h [15]: 0.03 µg/mL; Activity (Rhopalosiphum padi [16]): 50%; Activity (Rhopalosiphum padi [17]): 17%; CC50 at 48 h [18]: 8.09 µg/mL; Activity (Myzus persicae [19]): 17%
Cl[C@H]1[C@H](Cl)[C@@H](Cl)[C@@H](Cl)[C@H](Cl)[C@H]1Cl [LINDANE],0.1,–,–,–,–,mortality at 50 µg/cm2 (Myzus persicae [20]): 100%; CC50 at 48 h [15]: 0.001 µg/mL; mortality (Rhopalosiphum padi [21]): >50%; Activity [22]: Active; CC50 at 48 h [18]: > 100 µg/mL; Activity (Spodoptera littoralis [23]): Active; EC50 (Spodoptera littoralis [4]): 16.8 nmol/cm2; mortality [24]: 100%
C[C@]1(/C=C/Cl)C[C@@](C)(Cl)[C@H](Cl)C[C@@H]1Cl [MERTENSENE],150,150,Non-toxic,16.6,inactive,Time (Rhopalosiphum padi [5]): 1 min; Time (Rhopalosiphum padi [6]): 40 min; Time (Rhopalosiphum padi [7]): 0 min; Time (Rhopalosiphum padi [8]): 15 min; Time (Rhopalosiphum padi [9]): 15 min; Time (Rhopalosiphum padi [10]): 17 min; Time (Rhopalosiphum padi [11]): 48 min; Time (Rhopalosiphum padi [12]): 3 min; Time (Rhopalosiphum padi [13]): 45 min
CC1=CCC(C(C)(C)Cl)OC1C(Br)Br (centres undefined) [PANTONEURINE AB],2.4,100,Non-toxic,> 100,inactive,–
C=C(C)[C@@H]1[C@H]2OC(=O)[C@@H]1[C@]1(O)C[C@H]3O[C@]34C(=O)O[C@H]2[C@]14C [PICROTOXININ],27.5,> 100,–,> 100,–,–
CC(=C/C[C@@H](O)[C@](C)(Br)CCl)/C(Cl)=C/Br [PREFUROPLOCAMIOID],> 100,25.3,Non-toxic,38.9,inactive,–
Cc1ccc(C(C)C)c(O)c1 [THYMOL],3.6,30.9,–,23.7,–,–
C[C@]1(/C=C/Cl)C[C@](Cl)(CBr)[C@@H](Cl)C[C@H]1Cl [VIOLACENE],140,5.1,Non-toxic,2.5,inactive,Activity (Myzus persicae [14]): <50%; Time (Rhopalosiphum padi [5]): 0 min; Time (Rhopalosiphum padi [6]): 8 min; CC50 at 48 h [15]: 0.023 µg/mL; Time (Rhopalosiphum padi [7]): 0 min; Time (Rhopalosiphum padi [8]): 60 min; Activity (Rhopalosiphum padi [16]): 50%; Activity (Rhopalosiphum padi [17]): 17%; Time (Rhopalosiphum padi [9]): 59.5 min; Time (Rhopalosiphum padi [10]): 51.8 min; CC50 at 48 h [18]: 29.8 µg/mL; Time (Rhopalosiphum padi [11]): 0.5 min; Time (Rhopalosiphum padi [12]): 0.2 min; Activity (Myzus persicae [19]): 17%; Time (Rhopalosiphum padi [13]): 0 min; mortality [24]: 80%
